Several values for one entry are separate records, joined by “and”; a condition that tells them apart may be missing. Equal values may be shown once. Read-outs that look alike come from different tables or passages of the source.
Tests used:
[1] = test system: antizyme frameshifting (inducible 0 to +1 AZ1 construct) in HEK-293 cells; assay: dual luciferase reporter assay for antizyme frameshifting; format: cell-based; conditions: for EC50: HEK-293 cells grown in 2.5 mM DFMO, 50% of maximum percent frameshifting (plateau, FIG. 3), read-out: EC50 for induction of frameshifting; for induction of antizyme frameshifting, comparison in words / frameshift-rescue factor (FRF): 25 μM; for induction of antizyme frameshifting, comparison in words: HEK-293 (FIG. 1, FIG. 2); for frameshift-rescue factor (FRF): % RF multiplied by inverse of rescue coefficient, HEK-293
Experimental: Frameshifting can be detected using a dual luciferase reporter system that measures the efficiency of antizyme translational frameshifting (Grentzmann, G. et. al., RNA 4:479–486 (1998); Howard, M. et. al., Genes to Cells 6:931–941 (2001)). Frameshifting efficiency is determined by comparing the ratio of firefly luciferase to renilla luciferase activity in cells transfected in parallel using a control vector containing a constitutive +1 frameshift (AZ-IF) that measures the in-frame translation efficiency and a vector containing the inducible 0 to +1 frameshift (AZ1) construct. In these constructs, the renilla luciferase gene is upstream of the firefly luciferase gene which are separated by a short cloning sequence containing the portions of antizyme 1 and 2 known to contain the mRNA signals for polyamine stimulated frameshifting. Using a 96-well format, this assay system gives a quantitative measure of the efficiency of the polyamines, polyamine analogs and other compounds to induce frameshifting in a cell-based bioassay. Cells must be pretreated with α-difluoromethylornithine (DFMO), an irreversible inhibitor of ODC, prior to screening to decrease the basal antizyme frameshifting levels and increase the sensitivity to polyamine or compound-mediated stimulation of antizyme frameshifting.
FIG. 1 is a tabular representation of a large number of polyamines A-S (25 μM) that were tested for their ability to induce antizyme frameshifting using the dual luciferase reporter assay. The percent relative frameshifting value (% RF) gives a comparison of the ability of a compound to induce frameshifting compared to 25 μM spermidine. The % RF was calculated as follows. The background percent frameshifting activity determined from the 2.5 mM DFMO negative control was subtracted from the percent frameshifting activity for all compounds including the spermidine control. The background corrected frameshifting activity of each compound was then divided by the background corrected frameshifting activity induced by 25 μM spermidine and multiplied by 100. The compounds were also evaluated for their ability to rescue cells from DFMO-induced growth inhibition by determining their rescue coefficient. The rescue coefficient represents the ratio of the cell growth, as measured by O.D., in the presence of the test compound with 2.5 mM DFMO to the growth in the presence of 2.5 mM DFMO alone. The frameshift-rescue factor (FRF) is a useful factor to compare the effectiveness of the various antizyme frameshifters by taking into account their potency for inducing frameshifting and ability to rescue cells from DFMO-induced growth inhibition. The FRF was calculated by multipling the % RF value by the inverse of the rescue coefficient.
Values represent percent frameshifting following transient transfection of an AZ1-IF control and the inducible 0 to +1 AZ1 plasmid construct into HEK-293 cells grown in the presence of 2.5 mM DFMO. The compounds were added to the cells after transfection and incubated overnight before assaying the next day. Each value represents triplicate measurements.
A series of compounds are screened for their ability to induce frameshifting using the dual luciferase reporter assay. HEK-293 cells are plated in white sided, clear-bottomed 96-well assay plates at 15,000 cells per well in 100 μL of medium (DMEM supplemented with 10% fetal bovine serum (Gibco), 1% penicillin, streptomycin and L-glutamine) containing 2.5 mM DFMO. The cells are incubated for 2-days at 37° C. in an atmosphere of 5% CO2. The medium is removed and the cells are then transfected with lipofectamine reagent (LifeTechnologies) using serum free DMEM. All cells are transfected overnight with 100 ng of the appropriate plasmid DNA and 0.3 μL lipofectamine in 50 μL of serum free DMEM containing 2.5 mM DFMO. The next day, 40 μL of medium is added per well containing 3.1 mM DFMO, 2.5 mM aminoguanidine and 25% FBS. […]

HEK-293 cells [2] = assay: cells; format: cell-based; conditions: for IC50: read-out: IC50 growth inhibition
Experimental: Cell number was determined by MTS/PMS assay from triplicate wells.
(§1) Cells are plated in 96-well plates such that they would be in log growth for the duration of the assay. The day after plating, the polyamine analogs are added to the cells, and growth, if any, permitted to continue for six days in the presence of 1 mM AG and 1 μM SPD when appropriate. At the end of six days, cell growth is measured by MTS/PMS dye assay (Cell Titer 96 Aqueous Non-Radioactive Cell Proliferation Assay; Promega, Madison, Wis.). IC50 refers to the concentration of the polyamine analog that results in 50% of maximum cell growth inhibition.

HEK-293 cells [3] = assay: depletion of intracellular polyamine levels (HPLC) and cell growth; format: cell-based
Experimental: FIG. 6 is a graph showing the effect of a 6-day incubation of compound A on HEK-293 cellular polyamine levels and cell growth. All flasks received 1 mM aminoguanidine. Cells were washed, counted, lysed in perchloric acid, dansylated and polyamine levels determined by HPLC. Each value represents the average of triplicate values with the error bars representing standard deviation.
FIG. 7 illustrates the effect of extracellular compound A on the intracellular concentration of compound A in HEK-293 cells as determined by HPLC. Cells were prepared as in FIG. 6. Peak area was normalized by dividing the peak area of the compound divided by the peak area of the internal standard, diaminoheptane. Values represent at least triplicate measurements with the error bars representing standard deviation.
Compound A is further evaluated to determine if it depletes intracellular polyamine levels in HEK-293 cells in a dose-dependent fashion (FIG. 6). HEK-293 cells are plated in 75 cm^2 flasks at 300,000 cells/mL to insure they would be in log growth for the duration of the experiment. After overnight incubation at 37° C. in an atmosphere of 5% CO2, compound A is added along with 1 mM aminoguanidine. The flasks are then incubated for 6 days at 37° C. in an atmosphere of 5% CO2. The cells are harvested by washing twice with ice-cold 1×PBS, trypsinized, counted, and lysed in 0.4 N perchloric acid. Diaminoheptane is used in all dansylation reactions as an internal standard. Peak area is normalized by dividing the peak area of the compound divided by the peak area of the internal standard. The HPLC method for the fluorometric detection of polyamines from the cell extracts is based on the procedure by Kabra (Kabra, P. M. et. al. J. Chromatogr. 380:19–32 (1986)).

HEK-293 cells [4] = assay: rescue from DFMO-induced growth inhibition; format: cell-based; conditions: 25 μM compound, 2.5 mM DFMO, 6 days
Experimental: FIG. 5 gives a comparison of the ability of antizyme frameshifters (25 μM) to rescue cells from 2.5 mM DFMO-induced growth inhibition compared to 25 μM spermidine (SPD) in a 6-day assay in HEK-293 cells. The rescue coefficient represents the ratio of cell growth, as measured by O.D., of the test compound with 2.5 mM DFMO versus 2.5 mM DFMO alone.
HEK-293 cells are plated in 96-well assay plates at 1,000 cells per well in 100 μL of medium (DMEM supplemented with 10% fetal bovine serum (Gibco), 1% penicillin, streptomycin and L-glutamine). The cells are incubated overnight at 37° C. in an atmosphere of 5% CO2. Compounds are added the next day to a final concentration of 25 μM along with 1 mM aminoguanidine (inhibits serum amine oxidase) and 2.5 mM DFMO in a final volume of 200 μL medium. The positive control contained 25 μM spermidine. The cells are allowed to incubate for 6 days before cell growth is measured by MTS/PMS dye assay (Cell Titer 96 Aqueous Non-Radioactive Cell Proliferation Assay, Promega). The rescue coefficients in FIG. 1 and FIG. 5 are expressed as the ratio of the O.D. ((compound+2.5 mM DFMO)/O.D. (2.5 mM DFMO alone)). Therefore, DFMO alone has a value of one. […] If the value is less than one, then the compound is growth inhibitory. If the value is 0, the compound is cytotoxic.

ODC = conditions: read-out: Ki for ODC inhibition; cited from earlier work
[5] = test system: mouse kidney proximal tubule (MCT) cell; conditions: MCT cells; cited from earlier work
antizyme frameshifting = conditions: cited from earlier work
prostate PC-3 cells = assay: growth inhibition, PC-3; format: cell-based; conditions: Homo sapiens; prostate PC-3 cells (data not shown)
Experimental: as §1

MDA-MB-231 cells = assay: growth inhibition, MDA-MB-231; format: cell-based; conditions: Homo sapiens; MDA-MB-231 cells (data not shown)
Experimental: as §1

## NCCCNCCCCNCCCN [spermine, reference compound]
[1]; Homo sapiens, HEK293
  EC50: 0.68 µM

## NCCCCNCCCN [spermidine, reference compound]
[1]; Homo sapiens, HEK293
  EC50: 0.56 µM

## N-(3-aminopropyl)-xylylenediamin [Compound A]
HEK-293 cells [2]; HEK-293, 6 days, 1 mM aminoguanidine
  IC50: ~60 µM and 60 µM
HEK-293 cells [2]; HEK-293, 6 days, with 1 μM spermidine
  compound A concentrations at which 1 μM spermidine rescued cells from growth inhibition: 3 to 100 µM
HEK-293 cells [3]; 10 μM compound A, 6 days
  cell growth decrease: 32%
  spermidine levels down by: about 90%
HEK-293 cells [3]; 30 μM compound A, 6 days
  cell growth decrease: 38.5%
HEK-293 cells [3]; 100 μM compound A, 6 days
  intracellular spermidine level: non-detectable
  spermine levels reduced by: 50%
HEK-293 cells [3]; compound A levels above 30 μM
  spermine levels, of normal: approximately 50%
HEK-293 cells [3]; lowest concentration of compound A tested, 6 days
  intracellular putrescine level: non-detectable
HEK-293 cells [4]
  ability to rescue cells from DFMO-induced growth inhibition: neither compound A nor B significantly rescue cells
[1]
  induction of antizyme frameshifting, comparison in words: more potent than agmatine
  frameshift-rescue factor (FRF): 120
  EC50: ~120 µM

## N-(4-amino-1-butane-N-(3-aminopropyl-)-xylylenediamine [Compound B]
HEK-293 cells [4]
  ability to rescue cells from DFMO-induced growth inhibition: neither compound A nor B significantly rescue cells
[1]
  induction of antizyme frameshifting, comparison in words: more potent than agmatine
  frameshift-rescue factor (FRF): 83

## NCCCCN [putrescine, reference compound]
[1]; Homo sapiens, HEK293
  EC50: 0.95 µM

## NCCCN(CCCN)Cc1ccc(CN(CCCN)CCCN)cc1 [Compound S]
HEK-293 cells [4]
  ability to rescue cells from DFMO-induced growth inhibition: no ability to rescue
[1]; 25 μM compound, relative to 25 μM spermidine
  percent relative frameshifting (% RF): 100%

## Nc1ccc(N)cc1 [1,4-phenylenediamine]
ODC
  Ki: 46 µM

## N=C(N)NCCCCN [agmatine]
HEK-293 cells [2]; Homo sapiens, HEK293, HEK-293 cells (data not shown)
  IC50: ~210 µM
[5]
  concentration of maximum growth inhibition: ≤ 1 mM
HEK-293 cells [4]
  ability to rescue cells from DFMO-induced growth inhibition: somewhat better than either A or B in rescuing cells
[1]
  frameshift-rescue factor (FRF): 17
Antizyme frameshifting
  concentration of maximum frameshifting efficiency: 4 mM
Prostate PC-3 cells
  IC50: ~5000 µM
MDA-MB-231 cells
  IC50: ~2000 µM

## NC/C=C/CN [1,4-diamino-trans-2-butene]
ODC
  Ki: 2 µM

From patent US7144920B2, “Polyamine analogs that activate antizyme frameshifting” (MediQuest Therapeutics, Inc., priority 2002, dated 2006)
